Experimental data published in ChEMBL document CHEMBL1201862, “PubChem BioAssay data set” (2004).
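How tested: cells in 96-well plates exposed to compound for 48 hours at five concentrations. The concentration for 50% growth inhibition is given as GI50.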 Calls of active or inactive are those of the source. No stated cut-off is given here; in the data, active = GI50 up to about 1.1 µM and inactive = higher.

Experiments:
Assay in all cases: DTP human tumour cell line panel, 48 h
CCRF-CEM = tested on: CCRF-CEM
SW-620 = tested on: SW-620
NCI-H226 = tested on: NCI-H226
TK-10 = tested on: TK-10
NCI-H23 = tested on: NCI-H23
HOP-62 = tested on: HOP-62
HOP-92 = tested on: HOP-92
IGROV-1 = tested on: IGROV-1
Hs-578T = tested on: Hs-578T
LOX IMVI = tested on: LOX IMVI
786-0 = tested on: 786-0
NCI-H460 = tested on: NCI-H460
SN12C = tested on: SN12C
MDA-MB-435 = tested on: MDA-MB-435
UACC-62 = tested on: UACC-62
OVCAR-3 = tested on: OVCAR-3
U-251 = tested on: U-251
SK-MEL-2 = tested on: SK-MEL-2
UO-31 = tested on: UO-31
NCI-H522 = tested on: NCI-H522

Structure (SMILES)	GI50 (CCRF-CEM)	GI50 (SW-620)	GI50 (NCI-H226)	GI50 (TK-10)	GI50 (NCI-H23)	GI50 (HOP-62)	GI50 (HOP-92)	GI50 (IGROV-1)	GI50 (Hs-578T)	GI50 (LOX IMVI)	GI50 (786-0)	GI50 (NCI-H460)	GI50 (SN12C)	GI50 (MDA-MB-435)	GI50 (UACC-62)	GI50 (OVCAR-3)	GI50 (U-251)	GI50 (SK-MEL-2)	GI50 (UO-31)	GI50 (NCI-H522)
COc1ccccc1/C=C/c1ccnc2ccccc12	14.2 µM (inactive)	13.8 µM (inactive)	15.8 µM (inactive)	16.8 µM (inactive)	13.6 µM (inactive)	16.1 µM (inactive)	12.8 µM (inactive)	4.97 µM (inactive)	14.7 µM (inactive)	16.3 µM (inactive)	14.3 µM (inactive)	15.5 µM (inactive)	18.1 µM (inactive)	7.16 µM (inactive)	11.7 µM (inactive)	13.8 µM (inactive)	11.9 µM (inactive)	16.4 µM (inactive)	–	–
CCn1c(=O)c2c3ccc(OC)cc3[nH]c2c2ccc(OC)cc21	29.2 µM (inactive)	57.3 µM (inactive)	> 100 µM (inactive)	> 100 µM (inactive)	> 100 µM (inactive)	37.5 µM (inactive)	> 100 µM (inactive)	> 100 µM (inactive)	40.7 µM (inactive)	–	0.0426 µM (active)	–	> 100 µM (inactive)	> 100 µM (inactive)	63.2 µM (inactive)	37.5 µM (inactive)	> 100 µM (inactive)	–	47.9 µM (inactive)	56.1 µM (inactive)
CC(=O)Nc1ccc(C2=N/C(=C\c3ccc(Cl)cc3)C(=O)O2)cc1	26.7 µM (inactive)	8.91 µM (inactive)	> 100 µM (inactive)	> 100 µM (inactive)	36.4 µM (inactive)	> 100 µM (inactive)	33.7 µM (inactive)	> 100 µM (inactive)	–	18.4 µM (inactive)	20.8 µM (inactive)	69.5 µM (inactive)	28.2 µM (inactive)	–	40.6 µM (inactive)	27.8 µM (inactive)	38.5 µM (inactive)	> 100 µM (inactive)	26.4 µM (inactive)	25.4 µM (inactive)
COc1ccc(N2C(=O)C3c4[nH]c5ccc(C)cc5c4C4CCC(C(C)(C)C)CC4C3C2=O)cc1 (stereo not drawn)	4.84 µM (inactive)	5.58 µM (inactive)	21.1 µM (inactive)	17.1 µM (inactive)	22.3 µM (inactive)	13.6 µM (inactive)	–	38.9 µM (inactive)	3.64 µM (inactive)	–	20.4 µM (inactive)	6.22 µM (inactive)	48.4 µM (inactive)	24.9 µM (inactive)	7.93 µM (inactive)	10 µM (inactive)	3.85 µM (inactive)	–	17.2 µM (inactive)	25.6 µM (inactive)
C[N+](C)([O-])C12CC3CC(CC(C3)C1)C2	34.1 µM (inactive)	41.8 µM (inactive)	55.2 µM (inactive)	20.9 µM (inactive)	28.2 µM (inactive)	24 µM (inactive)	–	25.3 µM (inactive)	55.6 µM (inactive)	27.2 µM (inactive)	25.5 µM (inactive)	43.7 µM (inactive)	33.7 µM (inactive)	28.4 µM (inactive)	20.1 µM (inactive)	16.4 µM (inactive)	37.4 µM (inactive)	22.6 µM (inactive)	13.9 µM (inactive)	27.2 µM (inactive)
C/C(=N\NC(=S)N1CCN(c2ccccn2)CC1)c1nccs1	0.01 µM (active)	0.279 µM (active)	0.955 µM (active)	1.91 µM (inactive)	0.438 µM (active)	1.19 µM (inactive)	2.26 µM (inactive)	0.228 µM (active)	2.8 µM (inactive)	0.405 µM (active)	0.305 µM (active)	0.104 µM (active)	1.2 µM (inactive)	0.521 µM (active)	0.122 µM (active)	–	0.405 µM (active)	1.83 µM (inactive)	0.516 µM (active)	–
Cc1cc2[nH]c3c(C#N)c(-c4ccccc4)c(/N=N/c4cccc(C(F)(F)F)c4)c(=O)n3c2cc1C	5.3 µM (inactive)	35.8 µM (inactive)	25.2 µM (inactive)	50.4 µM (inactive)	14.6 µM (inactive)	> 100 µM (inactive)	–	21.8 µM (inactive)	–	49.1 µM (inactive)	35.8 µM (inactive)	21.4 µM (inactive)	27.9 µM (inactive)	38.8 µM (inactive)	–	8.55 µM (inactive)	39.3 µM (inactive)	58.1 µM (inactive)	31.3 µM (inactive)	16 µM (inactive)
CC(=O)c1cccc(Nc2nc3ccccc3c3occc23)c1	> 100 µM (inactive)	–	2.03 µM (inactive)	15 µM (inactive)	16.7 µM (inactive)	14 µM (inactive)	9.64 µM (inactive)	–	–	46.2 µM (inactive)	16.7 µM (inactive)	20.5 µM (inactive)	13.2 µM (inactive)	33.3 µM (inactive)	–	34.2 µM (inactive)	17.9 µM (inactive)	–	–	–
CCC1(CC)C(=O)NN(C(=O)c2ccc(Cl)cc2)C1=O	> 100 µM (inactive)	> 100 µM (inactive)	> 100 µM (inactive)	> 100 µM (inactive)	> 100 µM (inactive)	> 100 µM (inactive)	–	> 100 µM (inactive)	> 100 µM (inactive)	> 100 µM (inactive)	> 100 µM (inactive)	> 100 µM (inactive)	> 100 µM (inactive)	> 100 µM (inactive)	> 100 µM (inactive)	> 100 µM (inactive)	> 100 µM (inactive)	> 100 µM (inactive)	> 100 µM (inactive)	32.1 µM (inactive)
O=C(O)C/C=C/CC(=O)O	> 100 µM (inactive)	> 100 µM (inactive)	> 100 µM (inactive)	> 100 µM (inactive)	> 100 µM (inactive)	> 100 µM (inactive)	–	> 100 µM (inactive)	> 100 µM (inactive)	> 100 µM (inactive)	> 100 µM (inactive)	> 100 µM (inactive)	25.7 µM (inactive)	> 100 µM (inactive)	> 100 µM (inactive)	> 100 µM (inactive)	> 100 µM (inactive)	> 100 µM (inactive)	> 100 µM (inactive)	> 100 µM (inactive)
CCOC(=O)c1nc2ccc(C(F)(F)F)cc2nc1Nc1cc(OC)c(OC)c(OC)c1	> 100 µM (inactive)	> 100 µM (inactive)	–	> 100 µM (inactive)	> 100 µM (inactive)	> 100 µM (inactive)	> 100 µM (inactive)	> 100 µM (inactive)	> 100 µM (inactive)	> 100 µM (inactive)	> 100 µM (inactive)	> 100 µM (inactive)	> 100 µM (inactive)	> 100 µM (inactive)	> 100 µM (inactive)	> 100 µM (inactive)	–	–	> 100 µM (inactive)	> 100 µM (inactive)
Cc1nc2ccc(F)cc2c2c1CCS2	41 µM (inactive)	> 100 µM (inactive)	–	54.5 µM (inactive)	> 100 µM (inactive)	57.4 µM (inactive)	94.6 µM (inactive)	> 100 µM (inactive)	43 µM (inactive)	51.3 µM (inactive)	78.7 µM (inactive)	48.2 µM (inactive)	–	35.8 µM (inactive)	81.7 µM (inactive)	45.9 µM (inactive)	50.4 µM (inactive)	–	65.9 µM (inactive)	75.5 µM (inactive)
CN(C)CCS/C(=N\c1ccccc1)N1CCCCC1	23.8 µM (inactive)	17.8 µM (inactive)	7.41 µM (inactive)	18 µM (inactive)	19.1 µM (inactive)	> 100 µM (inactive)	13.7 µM (inactive)	16 µM (inactive)	–	16.3 µM (inactive)	16.3 µM (inactive)	17.5 µM (inactive)	17.7 µM (inactive)	–	16 µM (inactive)	16 µM (inactive)	41.8 µM (inactive)	16.5 µM (inactive)	20.3 µM (inactive)	14.7 µM (inactive)
O=C(O)c1ccccc1/N=N/c1c(O)c(S(=O)(=O)O)cc2cc(S(=O)(=O)O)ccc12	> 100 µM (inactive)	> 100 µM (inactive)	> 100 µM (inactive)	> 100 µM (inactive)	> 100 µM (inactive)	> 100 µM (inactive)	> 100 µM (inactive)	> 100 µM (inactive)	> 100 µM (inactive)	–	> 100 µM (inactive)	> 100 µM (inactive)	> 100 µM (inactive)	> 100 µM (inactive)	> 100 µM (inactive)	> 100 µM (inactive)	> 100 µM (inactive)	> 100 µM (inactive)	> 100 µM (inactive)	> 100 µM (inactive)
C=C1CC[C@@H]2C(C)(C)C(O)CCC2(C)C1COc1ccc2ccc(=O)oc2c1 (stereo partly drawn)	13.4 µM (inactive)	22.1 µM (inactive)	18.8 µM (inactive)	19.8 µM (inactive)	18.6 µM (inactive)	19.1 µM (inactive)	17.3 µM (inactive)	18.9 µM (inactive)	–	16.8 µM (inactive)	21.5 µM (inactive)	10.5 µM (inactive)	16.3 µM (inactive)	–	15.8 µM (inactive)	17.9 µM (inactive)	17.7 µM (inactive)	17.4 µM (inactive)	16 µM (inactive)	16.3 µM (inactive)
O=C1Nc2ccccc2/C1=C\c1c(Cl)n(-c2ccccc2)c2ccccc12	6.65 µM (inactive)	2.47 µM (inactive)	1.7 µM (inactive)	3.95 µM (inactive)	2.45 µM (inactive)	4.68 µM (inactive)	0.946 µM (active)	2.75 µM (inactive)	0.851 µM (active)	3.56 µM (inactive)	2.67 µM (inactive)	3.18 µM (inactive)	3.61 µM (inactive)	0.759 µM (active)	8.07 µM (inactive)	1.92 µM (inactive)	3.48 µM (inactive)	8.69 µM (inactive)	2.4 µM (inactive)	–
